Test results reported in PMC7956819, “Peptides from the Intestinal Tract of Breast Milk-Fed Infants Have Antimicrobial and Bifidogenic Activity” (International Journal of Molecular Sciences, 2021).
Peptide text beside a SMILES is read from it.

Key:
Type in all cases: cell-based
[1] = test system: Escherichia coli BL21 (DE3); conditions: BL21, 18 h
Procedure: (§1) The bioactivity of the intestinal peptide extracts was determined via the microdilution method. Antimicrobial activity was screened with E. coli and S. aureus as representatives of common infant pathogens responsible for infectious disease, and growth-promoting activity was screened with B. infantis, one of the ideal colonizers of the infant gut. For the antimicrobial assays, colonies of bacteria were selected and inoculated in 2 mL of MHB and incubated at 37 °C for 24 h. The inoculum was diluted to 2 × 10^5 CFU/mL with MHB. For the growth-promoting assays, 100 µL of stock bacteria were inoculated in 10 mL of reinforced clostridial broth supplemented with 0.1% ascorbic acid and incubated under anaerobic conditions (BD BBL™ GasPak™) at 37 °C for 24 h. Optical density was measured at 600 nm, and the inoculum was diluted to an optical density of 0.05 with reinforced clostridial broth.
(§2) The intestinal peptide extracts were serially diluted with PBS to concentrations of 1×, 1/2×, 1/4×, 1/8×, 1/16×, 1/32×, 1/64×, and 1/128×. In a 96-well plate, 50 µL of each dilution was incubated with 50 µL of inoculum in duplicate, along with a negative control of 50 µL of inoculum with 50 µL of pure PBS and a sterility test of 50 µL of peptide with 50 µL of broth. Growth was determined by optical density readings at 600 nm (OD600) taken at 0 h (T0) and 18 h (T18). The following equation was used to determine percent inhibition or promotion of bacterial growth:
(§3) Candidate peptides were synthesized and dissolved in sterile nanopure water. Antimicrobial and growth-promoting assays were carried out as described above with serial dilutions ranging from […] to 15.6 μg/mL. Minimum inhibitory concentration (MIC) was determined by the concentration at which all visible growth was inhibited.

[2] = test system: Staphylococcus aureus ATCC 12600; conditions: ATCC 12600, 18 h
Procedure: as §1, §2, §3

[3] = test system: Bifidobacterium longum spp. infantis ATCC 15697; conditions: ATCC 15697, 18 h
Procedure: as §1, §2, §3

| Structure (SMILES) | E. coli MIC [1] [µg/mL] | S. aureus MIC [2] [µg/mL] | B. infantis MIC [3] [µg/mL] |
| --- | --- | --- | --- |
| CC[C@H](C)[C@H](NC(=O)[C@@H]1CCCN1C(=O)[C@@H](N)CCC(=O)O)C(=O)N1CCC[C@H]1C(=O)N[C@@H](CC(C)C)C(=O)N[C@@H](CCC(=O)O)C(=O)N[C@@H](CO)C(=O)N[C@@H](CCCNC(=N)N)C(=O)N[C@@H](CCC(=O)O)C(=O)N[C@@H](CCC(=O)O)C(=O)O [Peptide 5] (H-EPIPLESREE-OH) | 2500 | 2500 | >3000 |
| CC[C@H](C)[C@H](NC(=O)[C@@H]1CCCN1C(=O)[C@H](CC(N)=O)NC(=O)[C@H](Cc1c[nH]cn1)NC(=O)[C@@H](NC(=O)[C@@H]1CCCN1C(=O)[C@H](C)NC(=O)[C@@H](N)CC(C)C)C(C)C)C(=O)O [Peptide 4] (H-LAPVHNPI-OH) | 3000 | 3000 | >3000 |
| CC[C@H](C)[C@H](NC(=O)[C@@H]1CCCN1C(=O)[C@H](CCC(N)=O)NC(=O)[C@@H]1CCCN1C(=O)[C@@H](NC(=O)[C@H](CCC(N)=O)NC(=O)[C@H](CCC(N)=O)NC(=O)[C@H](CCSC)NC(=O)[C@H](CC(C)C)NC(=O)[C@@H]1CCCN1C(=O)[C@H](CCC(N)=O)NC(=O)[C@H](CC(C)C)NC(=O)[C@H](CC(C)C)NC(=O)[C@@H]1CCCN1C(=O)[C@H](CC(C)C)NC(=O)[C@@H]1CCCN1C(=O)[C@H](CC(C)C)NC(=O)[C@@H](N)Cc1c[nH]cn1)C(C)C)C(=O)O [Peptide 1] (H-HLPLPLLQPLMQQVPQPI-OH) | >3000 | >3000 | >3000 |
| CC[C@H](C)[C@H](NC(=O)[C@H](CCC(N)=O)NC(=O)[C@H](C)NC(=O)[C@H](Cc1c[nH]cn1)NC(=O)[C@@H]1CCCN1C(=O)[C@H](CCCNC(=N)N)NC(=O)[C@@H](NC(=O)[C@@H](NC(=O)[C@H](C)NC(=O)[C@@H]1CCCN1C(=O)[C@H](CC(N)=O)NC(=O)[C@H](C)NC(=O)[C@@H](N)Cc1ccc(O)cc1)C(C)C)C(C)C)C(=O)N1CCC[C@H]1C(=O)N[C@@H](CCC(N)=O)C(=O)N[C@@H](CCCNC(=N)N)C(=O)O [Peptide 6] (H-YANPAVVRPHAQIPQR-OH; N-terminus and C-terminus assumed) | >3000 | >3000 | >3000 |
| NCCCC[C@H](NC(=O)CNC(=O)[C@H](Cc1ccccc1)NC(=O)[C@H](CCCCN)NC(=O)[C@@H](N)CCC(=O)O)C(=O)N[C@@H](CC(=O)O)C(=O)N[C@@H](CCCCN)C(=O)N[C@@H](CO)C(=O)N1CCC[C@H]1C(=O)N[C@@H](CCCCN)C(=O)N[C@@H](Cc1ccccc1)C(=O)N[C@@H](CCC(N)=O)C(=O)O [Peptide 8] (H-EKFGKDKSPKFQ-OH) | 3000 | 3000 | >3000 |
| CC[C@H](C)[C@H](NC(=O)[C@H](CCC(N)=O)NC(=O)[C@H](Cc1c[nH]cn1)NC(=O)[C@@H](NC(=O)[C@@H]1CCCN1C(=O)[C@H](CC(N)=O)NC(=O)[C@H](CC(C)C)NC(=O)[C@@H](N)CC(C)C)[C@@H](C)O)C(=O)N[C@@H](Cc1ccc(O)cc1)C(=O)N1CCC[C@H]1C(=O)N[C@H](C(=O)N[C@H](C(=O)N[C@@H](CCC(N)=O)C(=O)N1CCC[C@H]1C(=O)N[C@@H](CC(C)C)C(=O)N[C@@H](C)C(=O)N1CCC[C@H]1C(=O)N[C@H](C(=O)N[C@@H](Cc1c[nH]cn1)C(=O)N[C@@H](CC(N)=O)C(=O)N1CCC[C@H]1C(=O)N[C@H](C(=O)N[C@@H](CO)C(=O)O)[C@@H](C)CC)C(C)C)[C@@H](C)O)C(C)C [Peptide 2] (H-LLNPTHQIYPVTQPLAPVHNPIS-OH) | >3000 | >3000 | >3000 |
| CC(C)C[C@H](NC(=O)[C@H](CC(=O)O)NC(=O)[C@H](CCCCN)NC(=O)[C@@H](N)Cc1ccccc1)C(=O)NCC(=O)N[C@@H](CCC(=O)O)C(=O)N[C@@H](CCC(=O)O)C(=O)N[C@@H](CC(N)=O)C(=O)N[C@@H](Cc1ccccc1)C(=O)N[C@@H](CCCCN)C(=O)O [Peptide 11] (H-FKDLGEENFK-OH) | 3000 | 3000 | >3000 |
| CSCC[C@H](NC(=O)[C@@H](N)CC(=O)O)C(=O)N[C@@H](CC(C)C)C(=O)N[C@H](C(=O)N[C@H](C(=O)N[C@@H](CC(=O)O)C(=O)N1CCC[C@H]1C(=O)N[C@@H](CCCCN)C(=O)O)C(C)C)C(C)C [Peptide 9] (H-DMLVVDPK-OH; N-terminus and C-terminus assumed) | 3000 | 3000 | >3000 |
| CC[C@H](C)[C@H](NC(=O)[C@H](CCC(N)=O)NC(=O)[C@@H](N)Cc1c[nH]cn1)C(=O)N[C@@H](Cc1ccc(O)cc1)C(=O)N1CCC[C@H]1C(=O)N[C@H](C(=O)N[C@H](C(=O)N[C@@H](CCC(N)=O)C(=O)N1CCC[C@H]1C(=O)N[C@@H](CC(C)C)C(=O)O)[C@@H](C)O)C(C)C [Peptide 3] (H-HQIYPVTQPL-OH; N-terminus and C-terminus assumed) | >3000 | >3000 | >3000 |
| CC[C@H](C)[C@H](NC(=O)[C@@H](NC(=O)[C@@H]1CCCN1C(=O)[C@H](CC(C)C)NC(=O)[C@H](C)NC(=O)[C@H](CO)NC(=O)[C@@H](NC(=O)[C@@H](N)CCSC)[C@@H](C)O)[C@@H](C)CC)C(=O)N[C@@H](CCC(N)=O)C(=O)N[C@@H](CCCCN)C(=O)O [Peptide 10] (H-MTSALPIIQK-OH) | >3000 | >3000 | >3000 |
| CC(C)C[C@H](NC(=O)[C@H](CC(N)=O)NC(=O)[C@@H]1CCCN1C(=O)[C@@H](N)CCCNC(=N)N)C(=O)N[C@@H](Cc1c[nH]cn1)C(=O)N1CCC[C@H]1C(=O)N[C@@H](CO)C(=O)O [Peptide 7] (H-RPNLHPS-OH) | 3000 | 3000 | >3000 |
